Test results from patent US9814759B2, “Pharmaceutical composition comprising recombinant hemoglobin protein or subunit-based therapeutic agent for cancer targeting treatment” (Cheer Global Ltd., priority 2014, dated 2017).

Key:
[1] = native human hemoglobin, comparison value; cited from earlier work
[2] = test system: liver cancer cells (HepG2); test: Live cell time-lapse microscopy, uptake of fluorescent labeled hemoglobin subunits in cancer cells; type: cell-based; details: with heme (+) or without heme (−), 0.1% O2, FIG. 10
Description: The pharmaceutical composition of the present invention comprises recombinant hemoglobin protein or recombinant hemoglobin tetramer or dimer or subunit-based therapeutic agent capable of both targeting and killing the cancer cells. […] The fluorescent labeled recombinant hemoglobin subunits can also enter into the cancer cells (e.g., liver cancer cells, HepG2) and localize in there, and the result is illustrated in FIG. 10. It is expected that the chemically modified recombinant hemoglobin protein or tetramer or dimer or subunit-based therapeutic agent can also kill the cancer cells and progenitor cells/cancer stem cells effectively.
Cancer cells (HepG2) are cultured in DMEM (Invitrogen) with 10% Fetal bovine serum (FBS), 100 U/mL penicillin and 100 μg/mL streptomycin at 37° C. For normoxic condition, cells are incubated with ambient O2 concentration and 5% CO2; for hypoxic condition, cells are incubated with 0.1-0.5% O2 (Quorum FC-7 automatic CO2/O2/N2 gas mixer) and 5% CO2.
Cancer cells (e.g. HepG2 liver cancer cells) are seeded onto glass bottom microwell dishes (MatTek Corporation). Live cells at defined zooms (63×, 20×) are acquired using Zeiss Observer Z1 widefield microscope, equipped with atmospheric/temperature-controlled chamber and motorized stage for multi-positional acquisition. The incubation is performed in an enclosed live cell imaging system purged with 0.1% O2 and 5% CO2 (premixed). Cells are exposed to the fluorescent labeled recombinant hemoglobin subunits (α, β, γ1, γ2); for 15 min prior to the acquisition of images every 3 min for a period of 2 h. Images are deconvolved and compacted into time-lapse movies using the MetaMorph software (Molecular Device).

[3] = HPLC analysis of disulfide bond cleavage under reducing condition (GSH); type: physicochemical; details: PBS buffer (pH 7.4), 37° C., GSH 0.4-1000 equiv, 0-2 hrs
Description: The glutathione (GSH) level is much higher in the cytoplasm of cancer cells (˜1000 equiv) when compared to blood stream (˜1 equiv). A therapeutic drug with a disulfide bond can be cleaved much more easily in the cytoplasm of cancer cells with high concentration of GSH. A high-performance liquid chromatography (HPLC) analysis for the cleavage of model compound (N-(2-mercaptoethyl)benzamide) with disulfide bond under reducing condition is shown in FIG. 12. The cleavage of model compound is observed in PBS buffer (pH 7.4) at 37° C. with different concentration of glutathione (GSH) (0.4-1000 equiv). […] In the present invention, the recombinant hemoglobin protein or recombinant hemoglobin tetramer or dimer or subunit linked with a therapeutic drug (e.g. chemotherapeutic agent, radiotherapeutic agent, anti-cancer protein drug) by a disulfide bond is prepared for cancer treatment.

Compound	entry into / uptake by liver cancer cells [2]	further results
native human hemoglobin: native human hemoglobin, comparison for p50		p50 value (oxygen partial pressure necessary to produce 50 percent saturation of hemoglobin) [1]: 23-30 mm Hg
γ1: recombinant human hemoglobin monomer γ1 (146 amino acids), with or without heme	can enter into liver cancer cells (HepG2) successfully	
O=C(NCCS)c1ccccc1 [model compound, N-(2-mercaptoethyl)benzamide]		cleavage of disulfide bond at different GSH levels [3]: better at high concentration of GSH (>50 equiv)
α: recombinant human hemoglobin monomer α (141 amino acids), with or without heme	can enter into liver cancer cells (HepG2) successfully	
β: recombinant human hemoglobin monomer β (146 amino acids), with or without heme	can enter into liver cancer cells (HepG2) successfully	
γ2: recombinant human hemoglobin monomer γ2 (146 amino acids), with or without heme	can enter into liver cancer cells (HepG2) successfully	
